How the values were obtained:
[1] = molecular target: GCN2 kinase (Homo sapiens (Human), UniProt Q9P2K8); test: Biochemical assay for GCN2 (TR-FRET kinase activity assay); details: 1 mM ATP, 3-hour incubation
Protocol: Activity of GCN2 kinase was determined using a TR-FRET kinase activity assay (e.g. Riddle et al. Analytical Biochemistry (2006) 356(1) 108-116). Assays were conducted in 384-well plates (13 μL assay volume) using 2 nM GCN2 (Carna Biosciences), 130 nM GFP-EIf2α (Invitrogen), 0.2 mg/mL E. coli tRNA (sigma) and 1 mM ATP in kinase buffer (Invitrogen). Inhibition of GCN2 was measured by adding serial diluted test compound (final assay concentration of 0.5% DMSO) followed by a 3-hour incubation. Tb-peIF2α (pSer52) antibody (Invitrogen) (2 nM final assay concentration) in kinase buffer containing ETDA (final assay concentration of 20 mM) was added. After a 60 min incubation at room temperature, TR-FRET was monitored using an excitation wavelength of 340 nm and emission wavelengths of 490 nm and 520 nm. The emission ratio (520/490) at each compound concentration of was converted to percent inhibition using controls (i.e. reaction with no test compound and reaction with a known inhibitor) and IC50 values were calculated by fitting a four-parameter sigmoidal curve to the data using Prism (GraphPad software).

[2] = molecular target: PERK kinase (Homo sapiens (Human), UniProt Q9NZJ5); test: Biochemical assay for PERK (coupled pyruvate kinase/lactate dehydrogenase assay); details: 1 mM ATP, rate from 2-3 h time frame
PERK kinase, sequence (Q9NZJ5 other isoform, or with tags, fused parts or gaps): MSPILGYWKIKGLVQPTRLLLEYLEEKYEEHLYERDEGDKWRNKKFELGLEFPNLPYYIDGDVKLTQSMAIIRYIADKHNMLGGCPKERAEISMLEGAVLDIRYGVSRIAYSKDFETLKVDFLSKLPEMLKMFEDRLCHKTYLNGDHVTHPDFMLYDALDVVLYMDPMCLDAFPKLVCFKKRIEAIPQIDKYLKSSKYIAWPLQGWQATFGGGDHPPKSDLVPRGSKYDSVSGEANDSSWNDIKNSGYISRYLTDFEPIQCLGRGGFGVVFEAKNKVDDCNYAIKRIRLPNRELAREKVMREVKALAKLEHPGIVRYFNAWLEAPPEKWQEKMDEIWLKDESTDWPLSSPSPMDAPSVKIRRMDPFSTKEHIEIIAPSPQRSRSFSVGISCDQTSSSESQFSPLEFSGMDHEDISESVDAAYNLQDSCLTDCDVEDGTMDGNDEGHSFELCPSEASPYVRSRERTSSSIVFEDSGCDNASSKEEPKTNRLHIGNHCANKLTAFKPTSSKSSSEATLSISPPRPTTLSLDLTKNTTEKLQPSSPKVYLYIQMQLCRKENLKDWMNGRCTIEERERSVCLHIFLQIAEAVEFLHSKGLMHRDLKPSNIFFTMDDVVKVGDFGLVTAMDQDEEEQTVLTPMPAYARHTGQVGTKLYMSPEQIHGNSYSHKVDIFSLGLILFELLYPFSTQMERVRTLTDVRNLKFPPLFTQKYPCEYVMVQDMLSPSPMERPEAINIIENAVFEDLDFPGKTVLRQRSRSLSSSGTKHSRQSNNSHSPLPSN
Protocol: Activity of PERK kinase was determined spectroscopically using a coupled pyruvate kinase/lactate dehydrogenase assay that continuously monitors the ATP hydrolysis-dependent oxidation of NADH (e.g., Schindler et al. Science (2000) 289: 1938-1942). Assays were conducted in 384-well plates (100 μL final volume) using 10 nM PERK (from Beryllium), 0.25 mg/mL Myelin Basic Protein substrate, 1.5 units pyruvate kinase, 2.1 units lactate dehydrogenase, 1 mM phosphoenol pyruvate, 0.28 mM NADH and 1 mM ATP in assay buffer (100 mM Tris, pH 7.5, 15 mM MgCl2, 0.5 mM DTT, 0.004% (w/v) BSA, and 0.004% Triton X-100). Inhibition of PERK was measured by adding serial diluted test compound (final assay concentration of 1% DMSO). A decrease in absorption at 340 nm was monitored continuously for 6 hours at 30° C. on a multi-mode microplate reader (BioTek). The reaction rate was calculated using the 2-3 h time frame. The reaction rate at each concentration of compound was converted to percent inhibition using controls (i.e. reaction with no test compound and reaction with a known inhibitor) and IC50 values were calculated using software routines in Prism (GraphPad software).

GCN2 kinase, sequence (Q9P2K8 whole entry): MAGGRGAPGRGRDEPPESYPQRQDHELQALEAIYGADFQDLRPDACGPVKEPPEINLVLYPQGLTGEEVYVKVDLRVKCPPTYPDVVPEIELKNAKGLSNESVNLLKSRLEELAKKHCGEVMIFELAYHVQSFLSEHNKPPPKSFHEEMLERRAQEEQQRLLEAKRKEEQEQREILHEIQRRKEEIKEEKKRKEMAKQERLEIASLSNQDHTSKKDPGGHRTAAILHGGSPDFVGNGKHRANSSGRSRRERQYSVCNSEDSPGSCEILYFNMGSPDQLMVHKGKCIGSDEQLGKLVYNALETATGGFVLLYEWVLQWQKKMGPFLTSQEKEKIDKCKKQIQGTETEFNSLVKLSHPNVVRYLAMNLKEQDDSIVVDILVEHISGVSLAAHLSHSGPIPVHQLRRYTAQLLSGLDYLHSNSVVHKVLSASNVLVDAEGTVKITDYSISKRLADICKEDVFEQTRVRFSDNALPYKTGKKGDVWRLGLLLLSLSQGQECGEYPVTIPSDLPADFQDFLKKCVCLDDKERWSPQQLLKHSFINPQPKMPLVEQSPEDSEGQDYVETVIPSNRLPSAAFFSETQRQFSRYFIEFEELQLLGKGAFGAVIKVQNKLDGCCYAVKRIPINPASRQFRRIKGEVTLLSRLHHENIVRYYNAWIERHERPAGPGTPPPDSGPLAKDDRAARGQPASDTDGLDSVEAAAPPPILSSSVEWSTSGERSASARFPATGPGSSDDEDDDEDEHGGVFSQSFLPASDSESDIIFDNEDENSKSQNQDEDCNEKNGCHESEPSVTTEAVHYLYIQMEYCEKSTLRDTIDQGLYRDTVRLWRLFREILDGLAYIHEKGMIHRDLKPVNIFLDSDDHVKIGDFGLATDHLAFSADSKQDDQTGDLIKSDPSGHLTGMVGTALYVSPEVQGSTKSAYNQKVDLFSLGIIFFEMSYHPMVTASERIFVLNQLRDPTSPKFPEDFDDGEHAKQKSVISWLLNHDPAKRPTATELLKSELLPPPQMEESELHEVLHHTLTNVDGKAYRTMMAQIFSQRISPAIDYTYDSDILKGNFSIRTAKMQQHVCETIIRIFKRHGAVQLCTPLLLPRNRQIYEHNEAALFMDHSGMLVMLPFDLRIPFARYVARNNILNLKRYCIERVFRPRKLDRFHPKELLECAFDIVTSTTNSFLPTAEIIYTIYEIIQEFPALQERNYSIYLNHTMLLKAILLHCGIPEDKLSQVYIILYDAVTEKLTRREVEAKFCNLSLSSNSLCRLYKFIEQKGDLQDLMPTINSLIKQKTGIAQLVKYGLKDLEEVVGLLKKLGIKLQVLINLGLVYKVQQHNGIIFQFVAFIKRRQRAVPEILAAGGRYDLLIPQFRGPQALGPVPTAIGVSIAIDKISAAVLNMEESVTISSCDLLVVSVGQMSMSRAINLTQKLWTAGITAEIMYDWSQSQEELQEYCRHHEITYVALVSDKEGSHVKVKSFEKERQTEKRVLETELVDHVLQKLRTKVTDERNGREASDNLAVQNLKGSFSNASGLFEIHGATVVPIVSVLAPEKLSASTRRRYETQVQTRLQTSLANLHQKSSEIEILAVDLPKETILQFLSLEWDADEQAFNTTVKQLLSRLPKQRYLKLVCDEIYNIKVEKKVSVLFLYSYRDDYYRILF

| SMILES | IC50 [1] [nM] | IC50 [2] [nM] |
| --- | --- | --- |
| CNc1ncc2cc(-c3cc(NS(=O)(=O)c4cccnc4)c(F)cc3C)c(C)nc2n1 [Example 1, N-(2-fluoro-4-methyl-5-(7-methyl-2-(methylamino)pyrido[2,3-d]pyrimidin-6-yl)phenyl)pyridine-3-sulfonamide] | 1000 to 10000 | 1000 to 10000 |
| CNc1cc2nc(C)c(-c3cc(NS(=O)(=O)c4cc(Cl)cnc4OC)c(F)cc3F)cc2cn1 [Example 5, 5-chloro-N-(2,4-difluoro-5-(2-methyl-7-(methylamino)-1,6-naphthyridin-3-yl)phenyl)-2-methoxypyridine-3-sulfonamide] | 100 to 500 | 500 to 1000 |
| CNc1cc2nc(C)c(-c3ccc(F)c(NS(=O)(=O)c4cc(Cl)cnc4OC)c3)cc2cn1 [Example 7] | 500 to 1000 | 100 to 500 |
| CNc1ncc2cc(-c3cc(NS(=O)(=O)c4cc(Cl)cnc4OC)c(F)cc3C)c(NC)nc2n1 [Example 10] | 500 to 1000 | 1000 to 10000 |
| CNc1ncc2cc(-c3cc(NS(=O)(=O)c4cc(Cl)cnc4OC)c(F)cc3F)c(C)nc2n1 [Example 12] | 500 to 1000 | 1000 to 10000 |
| CNc1ncc2cc(-c3cc(NS(=O)(=O)c4cc(Cl)cnc4OC)c(F)cc3F)c(NC)nc2n1 [Example 13] | 500 to 1000 | 1000 to 10000 |
| CNc1cc2nc(C)c(-c3cc(NS(=O)(=O)c4cc(Cl)cnc4OC)c(F)cc3Br)cc2cn1 [Example 18] | 500 to 1000 | 1000 to 10000 |
| CNc1ncc2cc(-c3ccc(F)c(NS(=O)(=O)c4cc(Cl)cnc4OC)c3)c(C)nc2n1 [Example 20] | 1000 to 10000 | 1000 to 10000 |
| CNc1ncc2cc(-c3cc(NS(=O)(=O)c4cc(Cl)cnc4OC)c(C)cc3F)c(C)nc2n1 [Example 21] | 1000 to 10000 | 1000 to 10000 |
| CNc1ncc2cc(-c3cc(NS(=O)(=O)c4cc(Cl)cnc4OC)ccc3C)c(NC)nc2n1 [Example 24] | 100 to 500 | 100 to 500 |
| CNc1ncc2cc(-c3cc(F)cc(NS(=O)(=O)c4cc(Cl)cnc4OC)c3)ccc2n1 [Example 37] | 1000 to 10000 |  |
| CNc1ncc2cc(-c3cc(F)cc(NS(=O)(=O)c4cc(Cl)cc(C(C)(C)O)c4Cl)c3)c(NC)nc2n1 [Example 120] | 1000 to 10000 |  |
| CNc1nc2nc(NC(C)(C)C)ncc2cc1-c1cccc(NS(=O)(=O)c2cc(Cl)cnc2OC)c1F [Example 124] | 100 to 500 |  |
| CNc1ncc2cc(-c3cccc(NS(=O)(=O)c4cc(OC)c(Cl)cc4OC)c3F)c(NC)nc2n1 [Example 130] | 500 to 1000 |  |
| CNc1ncc2cc(-c3cccc(NS(=O)(=O)c4cccnc4C(F)(F)F)c3F)c(NC)nc2n1 [Example 131] | 100 to 500 |  |
| CNc1ncc2cc(-c3cccc(NS(=O)(=O)c4cc(C(C)(C)C)ccc4OC)c3F)c(NC)nc2n1 [Example 134] | 1000 to 10000 |  |
| CNc1nc2nc(NC3COC3)ncc2cc1-c1cccc(NS(=O)(=O)c2cc(Cl)cnc2OC)c1F [Example 138] | 100 to 500 |  |
| CNc1nc2nc(NCCOC)ncc2cc1-c1cccc(NS(=O)(=O)c2cc(Cl)cnc2OC)c1F [Example 139] | 100 to 500 |  |
| CNc1ncc2cc(-c3cccc(NS(=O)(=O)c4cc(OC)ccc4OC)c3F)c(NC)nc2n1 [Example 140] | 100 to 500 |  |
| CNc1ncc2cc(-c3cccc(NS(=O)(=O)c4ccc(C#N)cc4Cl)c3F)c(NC)nc2n1 [Example 141] | 1000 to 10000 |  |
| CNc1ncc2cc(-c3cccc(NS(=O)(=O)c4cccc(C(C)=O)c4Cl)c3F)c(NC)nc2n1 [Example 146] | 100 to 500 |  |
| CNc1nc2nc(NCC3COC3)ncc2cc1-c1cccc(NS(=O)(=O)c2cc(Cl)cnc2OC)c1F [Example 149] | 500 to 1000 |  |
| CNc1ncc2cc(-c3cccc(NS(=O)(=O)c4cccc(C(=O)OC)c4Cl)c3F)c(NC)nc2n1 [Example 150] | 500 to 1000 |  |
| CNc1ncc2cc(-c3cccc(NS(=O)(=O)c4cc(C#N)cnc4OC)c3F)c(NC)nc2n1 [Example 152] | 100 to 500 |  |
| CNc1ncc2cc(-c3cccc(NS(=O)(=O)c4cc(Cl)c(C)cc4OC)c3F)c(NC)nc2n1 [Example 157] | ≤ 100 |  |
| CNc1nc2nc(NC(=O)C3CC3)ncc2cc1-c1cccc(NS(=O)(=O)c2cc(Cl)cnc2OC)c1F [Example 172] | 100 to 500 |  |

From patent publication US11912668B2, “GCN2 and perk kinase inhibitors and methods of use thereof” (Deciphera Pharmaceuticals, LLC, priority 2020, dated 2024)
